Assay in all cases: NCI-60 cell line screen, 48 h
For test [1], the system named is OVCAR-3 ovarian.
The subject of test [2] is M14 melanoma.
The test system of test [3] is MOLT-4 leukemia.
In test [4] the test system is PC-3 prostate.
Test [5] has as its system SNB-75 CNS.
In test [6] the test system is MALME-3M melanoma.
The subject of test [7] is MDA-MB-231 breast.
For test [8], the system named is EKVX NSCLC.
The test system of test [9] is CAKI-1 renal.
The test system of test [10] is UACC-62 melanoma.

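Grown in 96-well plates, cells were treated for 48 hours with each compound at five concentrations. Insufficient inhibition: endpoint recorded as highest concentration tested. The concentration for 50% growth inhibition is given as GI50. TGI marks complete inhibition of growth.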

With `COC1=CC(c2ccc[nH]2)=N/C1=C\c1[nH]c(C)c(C(=O)OCc2ccccc2)c1C`, the GI50 in test [1] was 0.0621 µM; in test [2], 0.0448 µM; in test [3], 0.0513 µM; in test [4], 0.112 µM; in test [5], 0.127 µM; in test [6], 0.495 µM. For the same compound, the GI50 in test [7] was 0.0379 µM; in test [8], 0.206 µM; in test [9] it was 0.0483 µM; in test [10], 0.0579 µM. For the same compound, the TGI in [1] stood at 0.645 µM; in test [2], 0.817 µM; in test [3], 4.61 µM; in test [4], 20.6 µM; in test [5], 0.632 µM; in test [6], 2.1 µM. Further, the TGI in test [7] came out at 0.325 µM; in test [8] it was 3.64 µM; in test [9], 1.76 µM; in [10], 0.193 µM.

Turning to `C=C1C(=O)O[C@H]2[C@H]1CC/C(CNC(=O)/C=C/c1ccc(Br)cc1)=C\CC[C@@]1(C)O[C@@H]21`, the GI50 in test [1] is 0.511 µM; in test [2] it was 1.11 µM; in [3], 0.678 µM; in test [4], 1.47 µM; in [5] it was 1.23 µM; in test [6] it was 1.33 µM. Further, the GI50 was 1.41 µM in test [7], 1.46 µM in [8], 1.12 µM in test [9] and 1.34 µM in test [10]. For the same compound, the TGI in test [1] amounted to 1.74 µM; in test [2] it was 2.69 µM; in [3], 4.25 µM; in test [4], 3.24 µM; in [5], 2.49 µM; in test [6] it was 2.78 µM. The TGI in [7] worked out at 2.94 µM; in test [8], 2.91 µM; in test [9] it was 2.34 µM; in test [10] it was 2.78 µM.

Consider `COc1cc2c(cc1OC)C13CCN4C=C5CCOC6CC(=O)N2C1C6C5CC43` (stereo not given), for which the TGI in test [1], in test [2], in test [3], in test [4], in test [5] and in test [6] was more than 100 µM throughout. Further, the TGI in [7], in test [8], in [9] and in [10] was more than 100 µM in each case.

In the case of `COC(=O)[C@@H](NC(=O)NC(=O)NC(=O)CI)C(C)C`, the GI50 is 2.23 µM in test [1]; 3.34 µM in [2]; 2.58 µM in test [3]; 16.3 µM in test [4]; 13.2 µM in test [5]; 1.63 µM in test [6]. The GI50 in test [7] was 17 µM; in test [8], 17.2 µM; in test [9], 1.41 µM; in [10], 14.4 µM. Besides, the TGI in test [1] was 4.78 µM; in test [2] it was 13.1 µM; in [3], 7.05 µM; in test [4], 30.7 µM; in [5], 26.8 µM; in test [6], 3.64 µM. Also, the TGI in test [7] worked out at 34.9 µM; in test [8], 31.4 µM; in test [9], 2.73 µM; in test [10], 29.9 µM.

On to `CC(=O)C1=C(O)C=C2Oc3c(C(=O)/C=C/c4cc(C(F)(F)F)cc(C(F)(F)F)c4)c(O)c(C)c(O)c3[C@]2(C)C1=O`, for which the GI50 is 0.543 µM in [1]; 0.612 µM in test [2]; 0.437 µM in test [3]; 0.564 µM in [4]; 2.1 µM in test [5]; 0.513 µM in test [6]. Besides, the GI50 was 0.525 µM in [7], 0.462 µM in test [8], 0.531 µM in test [9] and 0.436 µM in [10]. Moreover, the TGI in [1] was 2.27 µM; in [2], 2.31 µM; in test [3], 15 µM; in test [4], 2.3 µM; in test [5] it was 4.91 µM; in test [6], 2.42 µM. In addition, the TGI was determined as 1.84 µM in test [7], 6.44 µM in test [8], 4.83 µM in test [9] and 1.27 µM in [10].

On to `Cc1ccccc1NC(=S)Nc1ccccn1`, for which the GI50 in test [1], in test [2], in test [3], in [4], in test [5] and in test [6] was more than 100 µM each time. In addition, the GI50 in test [7] was 89.7 µM; in test [8], 49 µM; in [9], more than 100 µM; in test [10], more than 100 µM. Besides, the TGI in test [1], in test [2], in [3], in [4], in [5] and in test [6] was more than 100 µM in each case. Moreover, the TGI in [7], in [8], in test [9] and in test [10] was more than 100 µM in each case.

For the compound `C=C(CNC(=O)Nc1ccc(-c2ccccc2)cc1)c1ccc(C(=O)Nc2ccccc2N)cc1`, the GI50 in test [1] is more than 100 µM; in test [2], 90.9 µM; in test [3], 30.5 µM; in test [4] it was 51.5 µM; in [5], 30.6 µM; in test [6] it was 53.7 µM. In addition, the GI50 is 31.1 µM in test [7], more than 100 µM in [8], more than 100 µM in [9] and more than 100 µM in test [10]. Further, the TGI in [1] was more than 100 µM; in test [2] it was more than 100 µM; in test [3], more than 100 µM; in test [4], more than 100 µM; in test [5] it was 96.2 µM; in test [6], more than 100 µM. Also, the TGI in test [7], in test [8], in test [9] and in test [10] was more than 100 µM throughout.
